Laboratory results as given in the METLIN SMRT retention time set (Domingo-Almenara et al. 2019).

Assay: gradient 5% acetonitrile 3 min, to 50% in 2 min, to 85% in 15 min, held 3 min, 100 µL/min
Conditions: column: Zorbax Extend-C18 2.1 x 50 mm; eluents: water / acetonitrile, 0.1% formic acid
How it was run: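 Standards, all pure, were combined into mixtures of ~100 molecules and run at 100 μL/min on a Zorbax Extend-C18 column (2.1 × 50 mm, 1.8 μm) with water and acetonitrile, each containing 0.1% formic acid. A coupled quadrupole time-of-flight mass spectrometer operated in positive and negative ionization mode. Retention time values come from computationally picked adduct peaks, each inspected manually.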

SMILES | RP-LC retention time [s]
O=C(CN1C(=O)CCCc2cc(S(=O)(=O)N3CCCCC3)ccc21)Nc1ccc(Cl)cc1 | 990
Cc1ccc2c(c1)N(C(=O)Cn1cnc3nc4c(cc3c1=O)CC(C)CC4)CCO2 (stereo not drawn) | 888
CC(=O)Nc1ccc(SCc2nnc(-c3ccc4c(c3)OCO4)o2)cc1 | 760
CCOC(=O)CNC(=O)NCc1cccn1Cc1ccccc1F | 772
CCn1ccc2oc(C)c(C(=O)NCc3cc(C)ccc3C)c2c1=O | 878
Cc1ccc(C)c(NC(=O)N2CCN(c3nc(C)cc(N(C)C)n3)CC2)c1 | 572
Cc1[nH]c(C(=O)Nc2ccccc2F)c(C)c1S(=O)(=O)N1CCCCC1 | 933
Clc1ccc2ncnc(NCc3ccc4c(c3)OCO4)c2c1 | 694
O=C(Nc1ccc(Cl)cc1)c1c(O)c2cccnc2n(Cc2ccccc2)c1=O | 1290
CCc1ccc2c(C)nc(NC3=NC(C)(C)C=C(C)N3)nc2c1 | 636
CNC(=O)c1nc(N2CCSCC2)c2cnn(C)c2n1 | 632
O=C(Nc1cnc(-c2cccc(Cl)c2)nc1)c1cccs1 | 1070
Cn1ncc2c(N3CCSCC3)nc(C(=O)NCCc3ccccn3)nc21 | 572
CCc1noc(C2CCCCN2C(=O)CCc2c[nH]c3ccccc23)n1 (stereo not drawn) | 888
CCN(CC)c1nc2cc(C(=O)OC)ccc2c(=O)n1-c1ccc2c(c1)OCO2 | 1080
CC(=O)c1cccc(NC(=O)c2nn(C)c(C(F)(F)F)c2Cl)c1 | 924
O=C(NCc1ccncc1)C1CC(=O)N(c2ccc3c(c2)CCN3C(=O)C2CC2)C1 (stereo not drawn) | 573
Cn1nc(C(=O)N2CCCC(C(=O)NC3CC3)C2)c2c1CCN(C(=O)c1cccc(F)c1)C2 (stereo not drawn) | 646
CCOc1ccc(-n2nc(-c3nc(-c4ccc5c(c4)OCO5)no3)c3ccccc3c2=O)cc1 | 1290
COCCNC(=O)C1CCN(c2cncnc2N2CCCC2)CC1 | 580
CCc1onc(C)c1C1CCCN1C(=O)NCc1ccc(F)cc1 (stereo not drawn) | 766
Cn1cc(CC(=O)NCC2CC2)c2cccnc21 | 593
Cc1c(CCN)ccc2c1[nH]c1ccccc12 | 697

SMILES | RP-LC retention time [s]
COC(=O)c1cccc(NC(=O)C2CCc3nc(N4CCOCC4)ncc3C2)c1 (stereo not drawn) | 746
Cc1nc(CCNC(=O)Cc2cccs2)no1 | 646
Cc1cccc(C2CCCN2C(=O)c2c(Cl)cnn2C)c1 (stereo not drawn) | 891
COc1cc(NC(=O)Cn2c(=O)n(-c3ccc(F)cc3)c3ncccc32)cc(OC)c1 | 849
CCOC(=O)Cn1cc(S(=O)(=O)N2CCCCC2)ccc1=O | 762
Cc1ccc(-c2ccc(N3CCCC(C(=O)N4CCC(C)CC4)C3)nn2)cc1C (stereo not drawn) | 792
Cc1ccc(S(=O)(=O)NCC2CCN(C(=O)Oc3ccccc3)CC2)s1 | 576
CCOc1ccc(OCC)c(NC(=O)C2CCN(S(=O)(=O)c3cn(C(C)C)cn3)CC2)c1 | 888
COCC(=O)Nc1ccc(N2CCC(N3CCCCC3)CC2)cc1C(=O)O | 654
COc1ccc(NC(=O)NCCc2nc3cccnc3n2C2CCCC2)c(OC)c1 | 708
COc1cccc(-c2cc(C(=O)N3CCN(c4ccc(N5CCOCC5)nn4)CC3)[nH]n2)c1 | 610
COc1ccc2c(c1)C1(CCN(C(=O)C(C)(C)C)C1)C(=O)N2C (stereo not drawn) | 764
Cc1cc(C)nc(SCC(=O)Nc2nc(-c3ccccc3)cs2)n1 | 1020
Cn1cnc2ccc(-c3noc(CNC(=O)c4cccs4)n3)cc21 | 585
CCOC(=O)C1=C(CNc2ccc(C)c(Cl)c2)NC(=O)NC1c1ccc2c(c1)OCO2 (stereo not drawn) | 897
CCOC(=O)C1CCN(C(=O)C(C)n2c(=O)c(C(F)(F)F)nc3ccccc32)CC1 (stereo not drawn) | 921
CCc1nc(C2CCN(C(=O)C3(c4ccc(OC)cc4)CC3)CC2)n[nH]1 | 551
CN1C(=O)c2cc(C(=O)NCCc3ccccc3)nn2CC1(C)C(=O)NC1CCCCCC1 (stereo not drawn) | 795
NS(=O)(=O)c1ccc(Cl)c(-c2nnc(-c3ccccc3)o2)c1 | 788
O=C(Nc1cccc(-c2ccc(N3CCCCC3)nn2)c1)Nc1ccccc1F | 742
Cc1ccc(N2N=C(C(=O)N3CCN(C(C)C)CC3)S(=O)(=O)c3cccnc32)cc1 | 649
Cc1oc(-c2[nH]ncc2C(=O)N2CCOCC2)cc1S(=O)(=O)Nc1ccccc1F | 662
O=C(CC1CCCCC1)Nc1ccc(-c2nnc3n2CCCC3)cc1 | 719

SMILES | RP-LC retention time [s]
COC(=O)c1cccc(NC(=O)C2CCN(c3cc(N4CCCC4)ncn3)CC2)c1 | 658
CCOc1cccc(-c2noc(Cn3c(=O)n(-c4cccc(C)c4)c(=O)c4sccc43)n2)c1 | 1060
COC(=O)c1cnc2nc(C)ccc2c1Nc1ccc(C)c(Cl)c1 | 733
CC(C)CCn1nc(-c2nc(-c3cccc(Cl)c3)no2)ccc1=O | 1310
COC(=O)c1ccc(C(=O)Nc2nnc(-c3cccs3)o2)cc1 | 710
CCCN1CCN(C(=O)c2ccc3c(c2)Sc2ncccc2C(=O)N3CC)CC1 | 579
NC(=O)c1cc(-c2ccccc2)sc1NC(=O)c1ccc([N+](=O)[O-])o1 | 883
Cc1cc(F)ccc1NS(=O)(=O)c1cc2c(s1)CCN(C(=O)C1CC1)C2 | 839
CCOc1cc(=O)n2c(c1C(=O)Nc1ccc(Br)cc1F)CCCC2 | 790
O=C(NCc1ccccc1F)C1CCN(c2cncnc2N2CCOCC2)CC1 | 611
COc1ccc(-c2nc3ncccn3c2NC2CCCCCC2)cc1OC | 756
COc1ccc(-c2nc(-c3ccc4oc(C)nc4c3)no2)cc1OC | 978
Cc1ccc(CNC(=O)c2ccc(=O)n(CCN3CCCC3)c2)cc1 | 614
COc1ccc(OC)c(NC(=O)NCC(c2cccnc2)c2c[nH]c3ccccc23)c1 (stereo not drawn) | 662
COc1ccccc1OCC(=O)Nc1ccc2c(c1)Sc1ncccc1C(=O)N2C(C)C | 883
CCOC(=O)c1c(C)oc2ncnc(NCCc3c[nH]c4ccccc34)c12 | 1050
Cc1nc(N2CCCC2)ncc1-c1ccnc(N2CCN(c3ccccc3)CC2)n1 | 1100
O=S(=O)(Cc1ccccc1)N1CCCC(Cc2noc(-c3ccccc3)n2)C1 (stereo not drawn) | 1050
CSc1cccc(NC(=O)N2CCC(c3cc(=O)n4nccc4n3C)CC2)c1 | 679
Cc1noc(-c2cc(=O)n(CC(=O)Nc3c(C)cccc3C)c3ccccc23)n1 | 839
CCc1csc(-c2ccc(S(=O)(=O)NCCN3CCC(C)CC3)s2)n1 | 718
COCc1nc2nccc(-c3ccc(OC)cc3)n2n1 | 690
